Source: US12448394B2, “Heterocyclic pyrazole derivatives as type III receptor tyrosine kinase inhibitors” (DEVELOPMENT CENTER FOR BIOTECHNOLOGY, priority 2019, dated 2025)

Assays:
MET kinase = molecular target: T1, MET kinase (Homo sapiens, UniProt P08581); test: MET kinase assay (AlphaScreen, counter screen); assay type: biochemical; details: read-out: Ranking of IC50 values, MET
T1 construct: purchased SignalChem
Method in brief: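 IC50 came from duplicate serial dilutions, with AlphaScreen detection of phosphorylated biotin-poly(Glu4:Tyr1). The reaction used 1 ng recombinant MET, 10 µM ATP […], and MOPS pH 7.0/MgCl2 buffer, ran 45 min at 30 °C, and was quenched with EDTA.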

[1] = system: Molm-14 human acute myeloid leukemia cell with FLT3-ITD mutation; test: Molm-14 cell proliferation assay (CellTiter 96); assay type: cell-based; details: Homo sapiens; Molm-14 cells, 72 hours treatment, CellTiter96; read-out: anti-proliferation activity Molm-14 (FLT3-ITD), IC50 ranking
Method in brief: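 Molm-14 (FLT3-ITD AML) cells in RPMI 1640 with 10% heat-inactivated FBS were seeded at 25000 cells/well, incubated overnight at 37° C, 5% CO2, then treated with increasing compound concentrations for 72 hours. Viability was read as absorbance at 490 nm after 2˜4 hours with CellTiter96 AQueous One reagent.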

[2] = system: THP-1 human acute monocytic leukemia cell with NRAS G12D mutation; test: THP-1 cell proliferation assay (counter screen); assay type: cell-based; details: Homo sapiens, THP-1 cells, 72 hours treatment, CellTiter96, read-out: anti-proliferation activity THP-1 NRAS N12D, IC50 ranking
Method in brief: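 Viability measured as 490 nm absorbance after 2–4 h with CellTiter96 AQueous One reagent, following 72 h treatment with rising compound concentrations. THP-1 cells, 5000/well, grown in RPMI 1640 with 10% FBS and 0.05 mM 2-mercaptoethanol at 37° C, 5% CO2, plated overnight before dosing.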

[3] = system: A375 melanoma cell with BRAF V600E mutation; test: A375 cell proliferation assay (counter screen); assay type: cell-based, human; details: Homo sapiens, A-375, A375 cells, 72 hours treatment, CellTiter96, read-out: anti-proliferation activity A375 BRAF V600E, IC50 ranking
Method in brief: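 A375 cells (BRAF V600E) seeded at 2000 cells/well in DMEM with 10% FBS, settled overnight at 37° C, 5% CO2, then exposed to increasing compound concentrations for 72 hours. Viability read by MTS-type CellTiter96 AQueous reagent, absorbance at 490 nm after 2–4 hours.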

[4] = system: HCC827 NSCLC cell with EGFR exon 19 deletion mutation; test: HCC827 cell proliferation assay (counter screen); assay type: cell-based, human; details: Homo sapiens, HCC827 cells, 72 hours treatment, CellTiter96, read-out: anti-proliferation activity HCC827 EGFR Exon19 del, IC50 ranking
Method in brief: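 HCC827 cells (EGFR exon 19 deletion) were seeded at 8000 cells/well in RPMI1640 with 10% FBS, then exposed to increasing compound concentrations for 72 h at 37 °C. Viability was read by CellTiter96 AQueous One (MTS), absorbance 490 nm after 2–4 h.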

[5] = system: phosphorylation of FLT3 and its down-stream effector STAT5; test: Western blotting of p-FLT3 and p-STAT5 in MV4-11 cells; assay type: cell-based; details: Homo sapiens; at 30 nM treatment, 3 hours, FLT3-ITD positive MV4-11 leukemia cells; read-out: inhibition activity against phosphorylation of FLT3 and its down-stream effector STAT5
Method in brief: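 MV4-11 cells held overnight in IMDM with 0.1% FBS, then 3 million cells treated with compound for 3 h. Whole lysates immunoblotted for p-FLT3 (Tyr-591), p-STAT5 (Tyr-694) and actin. Band intensities at 30 nM compared to DMSO control; % inhibition = (1 − relative intensity) × 100.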

T1 sequence (P08581 25-1390): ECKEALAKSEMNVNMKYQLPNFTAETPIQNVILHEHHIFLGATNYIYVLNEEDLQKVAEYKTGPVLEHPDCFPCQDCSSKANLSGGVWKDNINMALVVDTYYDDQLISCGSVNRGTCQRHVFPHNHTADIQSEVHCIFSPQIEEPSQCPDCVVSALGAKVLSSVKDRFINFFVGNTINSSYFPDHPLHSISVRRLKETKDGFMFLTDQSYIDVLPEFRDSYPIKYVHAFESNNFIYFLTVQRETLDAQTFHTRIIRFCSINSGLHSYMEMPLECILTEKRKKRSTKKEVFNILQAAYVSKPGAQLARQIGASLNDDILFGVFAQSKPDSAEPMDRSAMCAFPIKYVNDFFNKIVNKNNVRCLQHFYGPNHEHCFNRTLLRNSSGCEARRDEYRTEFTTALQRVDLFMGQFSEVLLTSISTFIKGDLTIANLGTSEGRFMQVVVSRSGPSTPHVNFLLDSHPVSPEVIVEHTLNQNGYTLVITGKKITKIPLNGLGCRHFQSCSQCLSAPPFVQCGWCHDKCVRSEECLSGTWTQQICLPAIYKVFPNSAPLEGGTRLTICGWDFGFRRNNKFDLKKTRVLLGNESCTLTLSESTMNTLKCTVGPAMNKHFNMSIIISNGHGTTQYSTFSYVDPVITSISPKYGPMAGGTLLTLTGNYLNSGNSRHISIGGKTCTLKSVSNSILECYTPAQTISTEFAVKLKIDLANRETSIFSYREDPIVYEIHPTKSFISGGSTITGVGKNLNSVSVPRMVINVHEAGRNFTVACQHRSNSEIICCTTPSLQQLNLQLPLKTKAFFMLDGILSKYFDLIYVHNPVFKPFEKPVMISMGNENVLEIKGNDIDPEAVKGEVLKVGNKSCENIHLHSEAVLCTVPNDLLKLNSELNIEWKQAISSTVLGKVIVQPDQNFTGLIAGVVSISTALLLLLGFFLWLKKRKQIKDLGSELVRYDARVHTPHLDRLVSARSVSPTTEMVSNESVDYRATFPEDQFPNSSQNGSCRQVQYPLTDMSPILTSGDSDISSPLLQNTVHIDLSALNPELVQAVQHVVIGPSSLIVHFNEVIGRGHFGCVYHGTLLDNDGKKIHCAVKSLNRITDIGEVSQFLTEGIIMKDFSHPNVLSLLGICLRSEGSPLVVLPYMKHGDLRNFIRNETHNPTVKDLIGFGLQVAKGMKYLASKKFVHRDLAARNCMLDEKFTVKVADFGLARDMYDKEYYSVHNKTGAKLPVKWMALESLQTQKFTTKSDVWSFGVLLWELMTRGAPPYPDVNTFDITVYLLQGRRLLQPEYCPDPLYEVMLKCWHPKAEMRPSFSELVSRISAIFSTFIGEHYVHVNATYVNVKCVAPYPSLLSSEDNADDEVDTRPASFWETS

| SMILES | IC50 (MET kinase) | IC50 [1] | IC50 [2] | IC50 [3] | IC50 [4] | inhibition at 0.03 µM [5] |
| --- | --- | --- | --- | --- | --- | --- |
| Cn1ncc2ccc(-c3n[nH]c4c3Cc3sc(-c5cnc(C(=O)N6CCOCC6)nc5)cc3-4)cc21 [Compound 41, (5-(3-(1-methyl-1H-indazol-6-yl)-1,4-dihydrothieno[2′,3′:4,5]cyclopenta[1,2-c]pyrazol-6-yl)pyrimidin-2-yl) (morpholino)methanone] | > 1 µM | < 0.03 µM | > 10 µM | > 10 µM | > 10 µM | > 50% |
| Cn1ncc2ccc(-c3n[nH]c4c3Cc3sc(-c5ccc(CN6CCOCC6)nc5)cc3-4)cc21 [Compound 10, 4-((5-(3-(1-methyl-1H-indazol-6-yl)-1,4-dihydro-thieno[2′,3′:4,5]cyclopenta [1,2-c]pyrazol-6-yl)pyridin-2-yl)methyl)morpholine] | > 1 µM | < 0.03 µM | > 10 µM | > 10 µM | > 10 µM | > 50% |
